According to patent US9365583B2, “Substituted pyrazoles and uses thereof” (Genentech, Inc., priority 2013, dated 2016):

Molecular target: T1, N-terminally GST-tagged DLK (catalytic domain amino acid 1-520) (Homo sapiens, UniProt Q12852)
T1 construct: N-terminally GST-tagged DLK (catalytic domain amino acid 1-520); purchased Carna Bioscience
T1 sequence (Q12852 1-520): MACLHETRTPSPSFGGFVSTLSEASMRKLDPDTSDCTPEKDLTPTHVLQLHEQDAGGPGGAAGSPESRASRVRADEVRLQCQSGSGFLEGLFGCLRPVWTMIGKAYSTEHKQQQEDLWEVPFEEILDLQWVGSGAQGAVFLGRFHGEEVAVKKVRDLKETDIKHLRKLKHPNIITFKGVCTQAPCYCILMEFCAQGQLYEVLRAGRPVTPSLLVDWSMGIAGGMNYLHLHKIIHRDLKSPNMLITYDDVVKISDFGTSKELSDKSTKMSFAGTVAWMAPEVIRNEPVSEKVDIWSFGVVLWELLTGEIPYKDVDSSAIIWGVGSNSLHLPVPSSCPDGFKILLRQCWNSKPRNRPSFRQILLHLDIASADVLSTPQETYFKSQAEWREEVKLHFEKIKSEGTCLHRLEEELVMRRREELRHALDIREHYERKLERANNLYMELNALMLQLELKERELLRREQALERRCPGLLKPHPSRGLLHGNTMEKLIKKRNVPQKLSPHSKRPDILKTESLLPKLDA
Assay: DLK TR-FRET inhibition assay
Format: biochemical
Conditions: 5 nM GST-DLK, 40 nM HIS-MKK4 K131M substrate, 30 μM ATP, 60 minutes at ambient temperature
Method: DLK TR-FRET inhibition assay: DLK kinase reactions (20 μL) containing 5 nM N-terminally GST-tagged DLK (catalytic domain amino acid 1-520) (Carna Bioscience), 40 nM N-terminally HIS-tagged MKK4 K131M substrate, and 30 μM ATP in kinase reaction buffer (50 mM HEPES, pH 7.5, 0.01% Triton X-100, 0.01% Bovine γ-Globulins, 2 mM DTT, 10 mM MgCl2 and 1 mM EGTA), and testing compound 1:3 serial diluted starting at 20 uM were incubated at ambient temperature for 60 minutes in 384 well OptiPlate (Perkin Elmer). To quench kinase reactions and detect phosphorylated MKK4, 15 μL of TR-FRET antibody mixture containing 2 nM anti-phosphorylated MKK4 labeled with Europium cryptate (Cisbio) and 23 nM anti-HIS labeled with D2 (Cisbio) in detection buffer (25 mM Tris pH 7.5, 100 mM NaCl, 100 mM EDTA, 0.01% Tween-20, and 200 mM KF) was added to the reaction mixture. The detection mixture was incubated for 3 hours at ambient temperature and the TR-FRET was detected with an EnVision multilabel plate reader (Perkin-Elmer) using the LANCE/DELFIA Dual Enh label from Perkin-Elmer (excitation filter: UV2 (TRF) 320 and emission filters: APC 665 and Europium 615).

| Compound | Ki |
| --- | --- |
| 3-(difluoromethoxy)-5-(5- ((1R,3r,5S,6r)-3-(3-fluoroazetidin-1- yl)bicyclo[3.1.0]hexan-6-yl)-1- isopropyl-1H-pyrazol-3-yl) pyridin-2-amine [compound 60] | 2.26 nM |
| 5-(1-isopropyl-5-((1R,3r,5S,6R)- 3-((R)-2-methylmorpholino) bicyclo[3.1.0]hexan-6-yl)-1H- pyrazol-3-yl)-3-(trifluoromethoxy) pyridin-2-amine [compound 12] | 1.77 nM |
| 5-(1-isopropyl-5-((1R,3r,5S,6R)- 3-((R)-2-methylmorpholino) bicyclo[3.1.0]hexan-6-yl)-1H- pyrazol-3-yl)-3-(trifluoromethyl) pyridin-2-amine [compound 2] | 2.06 nM |
| 5-(1-isopropyl-5-((1R,3s,5S,6R)- 3-((R)-2-methylmorpholino) bicyclo[3.1.0]hexan-6-yl)-1H- pyrazol-3-yl)-3-(trifluoromethoxy) pyridin-2-amine [compound 11] | 1.87 nM |
| 5-(1-isopropyl-5-((1R,3s,5S,6R)- 3-((R)-2-methylmorpholino) bicyclo[3.1.0]hexan-6-yl)-1H- pyrazol-3-yl)-3-(trifluoromethyl) pyridin-2-amine [compound 1] | 2.28 nM |
| CC(C)n1nc(-c2cnc(N)c(OC(F)F)c2)cc1[C@H]1[C@@H]2CC(F)(CN(C)C)C[C@@H]21 (mixture of isomers) [compound 178, 3-(difluoromethoxy)-5-(5-((1R, 5S,6r)-3-((dimethylamino)methyl)-3-fluorobicyclo[3.1.0]hexan-6-yl)-1-isopropyl-1H-pyrazol-3-yl)pyridin-2-amine] | 2.1 nM |
| CC(C)n1nc(-c2cnc(N)c(C(F)(F)F)c2)cc1[C@@H]1[C@H]2CC3C(OCCN3C)[C@H]21 (mixture of isomers) [compound 156, (±)-5-(1-isopropyl-5-(4-methyl-octahydro-2H-cyclopropa[4,5]cyclopenta[1,2-b][1,4]oxazin-6-yl)-1H-pyrazol-3-yl)-3-(trifluoromethyl)pyridin-2-amine] | 13.5 nM |
| CC(C)n1nc(-c2cnc(N)c(OC(F)F)c2)cc1[C@H]1[C@@H]2C[C@H]3CN(C)C[C@H]3[C@@H]21 (racemic) [compound 163, (±)-3-(difluoromethoxy)-5-(1-isopropyl-5-((3aS,3bR,4S,4aR,5aR)-2-methyloctahydro-1H-cyclopropa[3,4]cyclopenta[1,2-c]pyrrol-4-yl)-1H-pyrazol-3-yl) pyridin-2-amine] | 2.8 nM |
| CC(C)n1nc(-c2cnc(N)c(C(F)(F)F)c2)cc1[C@@H]1[C@H]2CC[C@@H](N3CCOCC3)[C@H]21 (single isomer, unassigned) [compound 138, 5-(1-isopropyl-5-(2-morpholinobicyclo[3.1.0]hexan-6-yl)-1H-pyrazol-3-yl)-3-(trifluoromethyl) pyridin-2-amine] | 12.9 nM |
| CC(C)n1nc(-c2cnc(N)c(C(F)(F)F)c2)cc1[C@@H]1[C@H]2CC[C@@H](N3CCOCC3)[C@H]21 (single isomer, unassigned) [compound 139, 5-(1-isopropyl-5-(2-morpholinobicyclo[3.1.0]hexan-6-yl)-1H-pyrazol-3-yl)-3-(trifluoromethyl) pyridin-2-amine] | 65.7 nM |
| CC(C)n1nc(-c2cnc(N)c(C(F)(F)F)c2)cc1[C@@H]1[C@H]2CC[C@H](O)[C@H]21 (single isomer, unassigned) [compound 142, 6-(3-(6-amino-5-trifluoromethylpyridin-3-yl)-1-isopropyl-1H-pyrazol-5-yl)bicyclo[3.1.0]hexan-2-ol] | 62.2 nM |
| CC(C)n1nc(-c2cnc(N)c(C(F)(F)F)c2)cc1[C@@H]1[C@H]2CC[C@H](O)[C@H]21 (single isomer, unassigned) [compound 143, 6-(3-(6-amino-5-trifluoromethylpyridin-3-yl)-1-isopropyl-1H-pyrazol-5-yl)bicyclo[3.1.0]hexan-2-ol] | 31.9 nM |
| CC(C)n1nc(-c2cnc(N)c(OC(F)F)c2)cc1[C@H]1[C@@H]2CC(N3CCOCC(F)C3)C[C@@H]21 (single isomer, unassigned) [compound 169] | 4.1 nM |
| COCC1(F)CCN(C2C[C@@H]3C(c4cc(-c5cnc(N)c(OC(F)F)c5)nn4C(C)C)[C@@H]3C2)C1 (single isomer, unassigned) [compound 171] | 5.4 nM |
| CC(C)n1nc(-c2cnc(N)c(OC(F)F)c2)cc1C1[C@H]2CC(N3CCOCC(F)C3)C[C@@H]12 (single isomer, unassigned) [compound 172] | 4.2 nM |
| CC(C)n1nc(-c2cnc(N)c(OC(F)F)c2)cc1C1[C@H]2CC(N3CCOCC(F)C3)C[C@@H]12 (single isomer, unassigned) [compound 173] | 4.5 nM |

| Compound | Ki |
| --- | --- |
| COCC1(F)CCN(C2C[C@@H]3C(c4cc(-c5cnc(N)c(OC(F)F)c5)nn4C(C)C)[C@@H]3C2)C1 (single isomer, unassigned) [compound 174] | 5.2 nM |
| CC(C)n1nc(-c2cnc(N)c(OC(F)F)c2)cc1C1[C@H]2CC(N3CCOCC(F)C3)C[C@@H]12 (single isomer, unassigned) [compound 175] | 5.5 nM |
| CC(C)n1nc(-c2cnc(N)c(C(F)(F)F)c2)cc1[C@H]1[C@@H]2CC(N3CCN4CCOCC4C3)C[C@@H]21 (single isomer, unassigned) [compound 184] | 2.1 nM |
| CC(C)n1nc(-c2cnc(N)c(C(F)(F)F)c2)cc1[C@H]1[C@@H]2CC(C#N)C[C@@H]21 (single isomer, unassigned) [compound 190] | 4.8 nM |
| CC(C)n1nc(-c2cnc(N)c(C(F)(F)F)c2)cc1[C@H]1[C@@H]2CC(C#N)C[C@@H]21 (single isomer, unassigned) [compound 191] | 7.8 nM |
| CC(C)n1nc(-c2cnc(N)c(C(F)(F)F)c2)cc1[C@H]1[C@@H]2CC(N3CCN4CCOCC4C3)C[C@@H]21 (single isomer, unassigned) [compound 196] | 3.4 nM |
| CC(C)n1nc(-c2cnc(N)c(C(F)(F)F)c2)cc1[C@H]1[C@@H]2CC3(C[C@@H]21)CN(C)CCO3 (single isomer, unassigned) [compound 197] | 1.3 nM |
| CC(C)n1nc(-c2cnc(N)c(OC(F)F)c2)cc1[C@H]1[C@@H]2C[C@@H](N3CCN4CCCC4C3)C[C@@H]21 (single isomer, unassigned) [compound 258] | 0.9 nM |
| CC(C)n1nc(-c2cnc(N)c(OC(F)F)c2)cc1[C@H]1[C@@H]2C[C@@H](N3CCN4CCCC4C3)C[C@@H]21 (single isomer, unassigned) [compound 259] | 0.7 nM |
| CC(C)n1nc(-c2cnc(N)c(C(F)(F)F)c2)cc1[C@H]1[C@@H]2C[C@@H](N3CCN4CCCC4C3)C[C@@H]21 (single isomer, unassigned) [compound 261] | 1.2 nM |
| CC(C)n1nc(-c2cnc(N)c(C(F)(F)F)c2)cc1[C@H]1[C@@H]2C[C@@H](N3CCN4CCCC4C3)C[C@@H]21 (single isomer, unassigned) [compound 263] | 1 nM |
| CC(C)n1nc(-c2cnc(N)c(C(F)(F)F)c2)cc1[C@H]1[C@@H]2CC(N3CC4COCC4C3)C[C@@H]21 (single isomer, unassigned) [compound 270] | 2.8 nM |
| CC(C)n1nc(-c2cnc(N)c(C(F)(F)F)c2)cc1[C@H]1[C@@H]2CC(N3CC4COCC4C3)C[C@@H]21 (single isomer, unassigned) [compound 277] | 2.3 nM |
| CC(C)n1nc(-c2cnc(N)c(OC(F)F)c2)cc1[C@H]1[C@@H]2C[C@H](O)C[C@@H]21 [compound 4, (1R,3r,5S,6r)-6-(3-(6-amino-5-(difluoromethoxy)pyridin-3-yl)-1-isopropyl-1H-pyrazol-5-yl) bicyclo[3.1.0]hexan-3-ol] | 4.51 nM |
| CC(C)n1nc(-c2cnc(N)c(C(F)(F)F)c2)cc1[C@H]1[C@@H]2C[C@@H](O)C[C@@H]21 [compound 5, (1R,3s,5S,6r)-6-(3-(6-amino-5-(trifluoromethyl)pyridin-3-yl)-1-isopropyl-1H-pyrazol-5-yl) bicyclo[3.1.0]hexan-3-ol] | 18.8 nM |
| CC(C)n1nc(-c2cnc(N)c(OC(F)F)c2)cc1[C@H]1[C@@H]2C[C@@H](O)C[C@@H]21 [compound 6, (1R,3s,5S,6r)-6-(3-(6-amino-5-(difluoromethoxy)pyridin-3-yl)-1-isopropyl-1H-pyrazol-5-yl) bicyclo[3.1.0]hexan-3-ol] | 14.4 nM |
